# Laboratory results from ChEMBL document CHEMBL4325874, “Design and synthesis of histamine H3/H4 receptor ligands with a cyclopropane scaffold” (Bioorg Med Chem Lett, 2018).
# Legend:
# Histamine H4 receptor = Histamine H4 receptor (Homo sapiens, UniProt Q9H3N8); assay: Displacement of [3H]histamine from human recombinant histamine H4 receptor expressed in CHO cell membranes after 30 mins by liquid scintillation analysis
# Histamine H3 receptor = Histamine H3 receptor (Homo sapiens, UniProt Q9Y5N1); assay: Displacement of [3H]Nalpha-methylhistamine from human recombinant histamine H3 receptor expressed in CHO cell membranes after 30 mins by liquid scintillation analysis
# Chain of Histamine H3 receptor (Q9Y5N1 whole entry): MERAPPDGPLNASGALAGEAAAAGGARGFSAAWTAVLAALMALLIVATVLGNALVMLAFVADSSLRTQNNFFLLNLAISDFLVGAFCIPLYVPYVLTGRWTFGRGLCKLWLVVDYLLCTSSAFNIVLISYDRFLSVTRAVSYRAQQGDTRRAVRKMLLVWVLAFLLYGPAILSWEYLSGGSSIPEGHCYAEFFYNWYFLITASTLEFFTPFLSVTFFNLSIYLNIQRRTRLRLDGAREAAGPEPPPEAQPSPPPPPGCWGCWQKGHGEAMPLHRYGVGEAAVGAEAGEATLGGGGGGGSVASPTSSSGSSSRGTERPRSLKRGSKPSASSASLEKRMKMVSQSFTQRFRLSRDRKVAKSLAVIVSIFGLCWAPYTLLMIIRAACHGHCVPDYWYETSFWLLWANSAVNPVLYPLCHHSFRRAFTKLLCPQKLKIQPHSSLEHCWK
Ki (Histamine H4 receptor),Ki (Histamine H3 receptor),SMILES
> 1000 nM,> 1000 nM,Clc1ccc(CNCC[C@@H]2C[C@H]2c2nc3cc(Cl)ccc3[nH]2)cc1
> 1000 nM,> 1000 nM,Clc1ccc(CNC[C@@H]2C[C@H]2c2nc3cc(Cl)ccc3[nH]2)cc1
> 1000 nM,> 1000 nM,CN1CCN([C@@H]2C[C@@H]2CNCc2ccc(Cl)cc2)CC1
> 1000 nM,> 1000 nM,Clc1ccc(CNC[C@@H]2C[C@@H]2c2cc3cc(Cl)ccc3[nH]2)cc1
> 1000 nM,> 1000 nM,CN1CCN([C@@H]2C[C@@H]2CCNCc2ccc(Cl)cc2)CC1
> 1000 nM,> 1000 nM,Clc1ccc(CNCC[C@H]2C[C@H]2N2CCNCC2)cc1
> 1000 nM,> 1000 nM,Clc1ccc(CNC[C@H]2C[C@H]2N2CCNCC2)cc1
> 1000 nM,> 1000 nM,Clc1ccc(CNCC[C@@H]2C[C@@H]2c2cc3cc(Cl)ccc3[nH]2)cc1
166 nM,52 nM,c1ccc2[nH]c(CNCC[C@@H]3C[C@H]3c3c[nH]cn3)nc2c1

SMILES,Ki (Histamine H4 receptor),Ki (Histamine H3 receptor)
c1ccc2[nH]c(C[C@@H]3C[C@H]3c3c[nH]cn3)nc2c1,295 nM,186 nM
